Data as given in patent publication US20140288043A1, “PYRAZOLOPYRIDINE COMPOUNDS” (Genentech, Inc., priority 2013, published 2014).

Each compound was assayed against LRRK2 (Homo sapiens, UniProt Q5S007) (assay: LRRK2 protein kinase assay ([γ-33P] ATP, peptide substrate), KI values of Table 1). Details: LRRK2 affinity values.
Format: biochemical
Text: All LRRK2 protein kinases were of human origin and were sourced from Invitrogen Corporation (Carlsbad, Calif. 92008 USA) unless otherwise indicated. The active mutant used was recombinant human, catalytic domain (amino acids 970-2527) containing a G2019S mutation, GST-tagged, expressed in insect cells (Invitrogen Cat#PV4881). The wild type used was recombinant human, catalytic domain (amino acids 970-2527) GST-tagged, expressed in insect cells (Invitrogen Cat#PV4873). The kinase dead mutant used was recombinant human, catalytic domain (amino acids 970-2527) containing a D1994A mutation, GST-tagged, expressed in insect cells (Invitrogen Cat#PM4041AE). No special measures were taken to activate any of the kinases.
All assays were carried out at room temperature (˜21° C.) and were linear with respect to time and enzyme concentration under the conditions used. Assays were performed for 180 min in a 96 well format. LRRK2 was present at a concentration of approximately 5 nM. The enzyme was diluted and assayed in 50 mM Tris-HCl pH7.5, 0.1 mM EGTA, 1 mM DTT and 10 mM MgCl2. The concentration of magnesium chloride in the assay was 10 mM. The [γ-33P] ATP (0.4 μCi/well) was used at 134 uM for G2019S mutant and at 57 μM for the wild type kinase in order to be at Km. The peptide substrate in the assay was […] at 100 μM.
The assays were initiated with Mg/ATP and stopped by the addition of 25 μl/well 50% orthophosphoric acid. Reactions were harvested onto Whatman P81 Unifilter Plates (Fisher Scientific. Loughborough, LE115RG, UK. Cat# FDU-105-020U) using a Tomtec harvester. (Tomtec Hamden, Conn. 06514. USA) Plates were counted using a Perkin Elmer Top Count NX7. (Perkin Elmer, Shelton Conn. 06484-4794 USA)
IC50 values of inhibitors were determined after carrying out assays at 10 different concentrations of each compound in duplicate.

Chain of LRRK2 (Q5S007 whole entry G2019S, form open): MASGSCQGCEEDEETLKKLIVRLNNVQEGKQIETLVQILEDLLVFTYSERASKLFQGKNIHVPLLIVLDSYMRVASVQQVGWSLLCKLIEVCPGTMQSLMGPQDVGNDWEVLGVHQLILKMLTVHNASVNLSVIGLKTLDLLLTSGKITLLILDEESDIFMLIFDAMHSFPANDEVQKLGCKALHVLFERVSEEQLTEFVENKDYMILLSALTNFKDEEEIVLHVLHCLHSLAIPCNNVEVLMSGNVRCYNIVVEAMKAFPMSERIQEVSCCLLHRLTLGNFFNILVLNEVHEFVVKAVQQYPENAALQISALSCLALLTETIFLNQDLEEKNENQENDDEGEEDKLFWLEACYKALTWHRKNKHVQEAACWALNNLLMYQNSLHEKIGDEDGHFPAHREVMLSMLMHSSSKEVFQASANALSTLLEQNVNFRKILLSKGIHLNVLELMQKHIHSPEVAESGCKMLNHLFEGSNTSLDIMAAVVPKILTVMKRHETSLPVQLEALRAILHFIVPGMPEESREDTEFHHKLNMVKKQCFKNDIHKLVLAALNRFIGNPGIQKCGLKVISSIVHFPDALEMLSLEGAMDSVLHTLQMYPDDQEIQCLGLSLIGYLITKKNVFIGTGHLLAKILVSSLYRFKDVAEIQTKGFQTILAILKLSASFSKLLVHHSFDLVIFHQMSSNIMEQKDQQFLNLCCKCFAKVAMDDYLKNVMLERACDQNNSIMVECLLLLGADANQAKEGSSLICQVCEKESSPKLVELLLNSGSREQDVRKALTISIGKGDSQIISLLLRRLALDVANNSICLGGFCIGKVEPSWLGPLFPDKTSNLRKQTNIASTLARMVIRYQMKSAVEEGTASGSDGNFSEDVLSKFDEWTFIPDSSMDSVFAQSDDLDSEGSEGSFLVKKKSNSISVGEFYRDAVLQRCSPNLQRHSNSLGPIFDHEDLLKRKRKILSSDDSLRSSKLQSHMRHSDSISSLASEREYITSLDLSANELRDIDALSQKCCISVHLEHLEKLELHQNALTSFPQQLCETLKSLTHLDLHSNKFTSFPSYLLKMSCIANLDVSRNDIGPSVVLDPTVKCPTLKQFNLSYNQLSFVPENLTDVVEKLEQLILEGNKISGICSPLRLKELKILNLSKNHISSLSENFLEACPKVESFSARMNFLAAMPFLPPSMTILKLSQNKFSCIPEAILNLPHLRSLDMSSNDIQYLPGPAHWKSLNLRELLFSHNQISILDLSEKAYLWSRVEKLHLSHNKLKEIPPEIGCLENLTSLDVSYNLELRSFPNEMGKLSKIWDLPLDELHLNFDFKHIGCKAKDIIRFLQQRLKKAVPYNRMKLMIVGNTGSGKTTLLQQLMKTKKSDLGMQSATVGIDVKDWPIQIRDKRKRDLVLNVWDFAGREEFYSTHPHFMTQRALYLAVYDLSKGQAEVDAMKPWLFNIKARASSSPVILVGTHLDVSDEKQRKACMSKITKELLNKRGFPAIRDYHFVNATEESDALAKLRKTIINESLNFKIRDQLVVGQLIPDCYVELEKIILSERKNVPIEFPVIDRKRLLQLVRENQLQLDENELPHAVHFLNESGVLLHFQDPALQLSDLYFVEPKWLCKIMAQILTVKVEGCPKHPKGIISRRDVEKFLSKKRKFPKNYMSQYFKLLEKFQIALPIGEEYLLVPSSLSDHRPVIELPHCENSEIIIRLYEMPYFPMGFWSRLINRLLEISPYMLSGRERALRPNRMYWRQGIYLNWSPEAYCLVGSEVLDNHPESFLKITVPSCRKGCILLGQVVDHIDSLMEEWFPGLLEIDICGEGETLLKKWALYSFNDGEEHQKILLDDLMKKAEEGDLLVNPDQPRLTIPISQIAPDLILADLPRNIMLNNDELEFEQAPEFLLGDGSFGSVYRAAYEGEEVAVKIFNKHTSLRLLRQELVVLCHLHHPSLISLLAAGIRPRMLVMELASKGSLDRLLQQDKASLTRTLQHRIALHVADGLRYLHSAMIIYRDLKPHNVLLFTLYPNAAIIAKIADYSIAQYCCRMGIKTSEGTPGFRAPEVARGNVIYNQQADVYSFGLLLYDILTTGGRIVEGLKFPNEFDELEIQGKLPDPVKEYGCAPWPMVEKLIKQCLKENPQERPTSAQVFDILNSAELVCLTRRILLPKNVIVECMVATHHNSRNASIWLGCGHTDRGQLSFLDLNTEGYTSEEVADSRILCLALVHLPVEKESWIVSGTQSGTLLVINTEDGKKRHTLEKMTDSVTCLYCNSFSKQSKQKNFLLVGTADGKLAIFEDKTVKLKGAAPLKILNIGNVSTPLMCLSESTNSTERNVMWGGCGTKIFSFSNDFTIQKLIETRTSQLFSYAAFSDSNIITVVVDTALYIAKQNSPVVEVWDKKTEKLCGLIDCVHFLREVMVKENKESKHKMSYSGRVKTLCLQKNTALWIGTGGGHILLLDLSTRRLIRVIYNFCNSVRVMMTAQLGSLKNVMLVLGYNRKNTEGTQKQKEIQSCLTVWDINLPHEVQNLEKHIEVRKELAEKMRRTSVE

SMILES	Ki [nM]
CCNc1nccc2[nH]nc(-c3cc(C(F)(F)F)ncn3)c12 [Compound 27, N-ethyl-3-(6-(trifluoromethyl)pyrimidin-4-yl)-1H-pyrazolo[4,3-c]pyridin-4-amine]	31.8
Clc1ccnc(-c2n[nH]c3ccnc(NC4CCOCC4)c23)c1 [Compound 29, 3-(4-chloropyridin-2-yl)-N-(tetrahydro-2H-pyran-4-yl)-1H-pyrazolo[4,3-c]pyridin-4-amine]	0.7
CC(C)Nc1nccc2[nH]nc(-c3cc(-c4ccnn4C)ccn3)c12 [Compound 36, N-isopropyl-3-(4-(1-methyl-1H-pyrazol-5-yl)pyridin-2-yl)-1H-pyrazolo[4,3-c]pyridin-4-amine]	3.7
CC(C)Nc1nccc2[nH]nc(-c3cc(-c4cnn(C)c4)ccn3)c12 [Compound 35, N-isopropyl-3-(4-(1-methyl-1H-pyrazol-4-yl)pyridin-2-yl)-1H-pyrazolo[4,3-c]pyridin-4-amine]	0.8
FC(F)(F)c1cc(-c2n[nH]c3ccnc(NC4CCOCC4)c23)ncn1 [Compound 22, N-(tetrahydro-2H-pyran-4-yl)-3-(6-(trifluoromethyl)pyrimidin-4-yl)-1H-pyrazolo[4,3-c]pyridin-4-amine]	2.9
CC(C)n1cc(-c2n[nH]c3ccnc(NC4CCOCC4)c23)nn1 [Compound 5, 3-(1-isopropyl-1H-1,2,3-triazol-4-yl)-N-(tetrahydro-2H-pyran-4-yl)-1H-pyrazolo[4,3-c]pyridin-4-amine]	1.7
CC(C)Nc1nccc2[nH]nc(-c3nccc(N4CCOCC4)n3)c12 [Compound 2, N-isopropyl-3-(4-morpholinopyrimidin-2-yl)-1H-pyrazolo[4,3-c]pyridin-4-amine]	78.5
CCNc1nccc2[nH]nc(-c3cn(C)cn3)c12 [Compound 12, N-ethyl-3-(1-methyl-1H-imidazol-4-yl)-1H-pyrazolo[4,3-c]pyridin-4-amine]	33.7
CC(C)Nc1nccc2[nH]nc(-c3cc(C#N)ccn3)c12 [Compound 31, 2-(4-(isopropylamino)-1H-pyrazolo[4,3-c]pyridin-3-yl)isonicotinonitrile]	2.3
CCNc1nccc2[nH]nc(-c3cn(C)nn3)c12 [Compound 10, N-ethyl-3-(1-methyl-1H-1,2,3-triazol-4-yl)-1H-pyrazolo[4,3-c]pyridin-4-amine]	14.5
CC(C)Nc1nccc2[nH]nc(-c3ccccn3)c12 [Compound 13, N-isopropyl-3-(pyridin-2-yl)-1H-pyrazolo[4,3-c]pyridin-4-amine]	11
CCNc1nccc2[nH]nc(-c3cn(CCOC)nn3)c12 [Compound 14, N-ethyl-3-(1-(2-methoxyethyl)-1H-1,2,3-triazol-4-yl)-1H-pyrazolo[4,3-c]pyridin-4-amine]	22.5
CC(C)Nc1nccc2[nH]nc(-c3cn(C(C)C)nn3)c12 [Compound 7, N-isopropyl-3-(1-isopropyl-1H-1,2,3-triazol-4-yl)-1H-pyrazolo[4,3-c]pyridin-4-amine]	4.4
FC(F)(F)c1ccnc(-c2n[nH]c3ccnc(NC4CCOCC4)c23)c1 [Compound 23, N-(tetrahydro-2H-pyran-4-yl)-3-(4-(trifluoromethyl)pyridin-2-yl)-1H-pyrazolo[4,3-c]pyridin-4-amine]	0.4
CC(C)Nc1nccc2[nH]nc(-c3cn(C)nn3)c12 [Compound 8, N-isopropyl-3-(1-methyl-1H-1,2,3-triazol-4-yl)-1H-pyrazolo[4,3-c]pyridin-4-amine]	5.2
CC(C)Nc1nccc2[nH]nc(-n3cc(C(F)(F)F)cn3)c12 [Compound 32, N-isopropyl-3-(4-(trifluoromethyl)-1H-pyrazol-1-yl)-1H-pyrazolo[4,3-c]pyridin-4-amine]	9.1

Other lines, results leading:

Ki [nM]	SMILES
213	CC(C)Nc1nccc2[nH]nc(-c3nc(C4CC4)n(C)n3)c12 [Compound 42, 3-(5-cyclopropyl-1-methyl-1H-1,2,4-triazol-3-yl)-N-isopropyl-1H-pyrazolo[4,3-c]pyridin-4-amine]
2.5	FC(F)(F)c1cc(-c2n[nH]c3ccnc(NC(C4CC4)C4CC4)c23)ncn1 [Compound 73, N-(dicyclopropylmethyl)-3-(6-(trifluoro-methyl)pyrimidin-4-yl)-1H-pyrazolo[4,3-c]pyridin-4-amine]
25.8	CC(C)Nc1nccc2[nH]nc(-c3cc(S(=O)(=O)C(C)C)ccn3)c12 [Compound 74, N-isopropyl-3-(4-(isopropylsulfonyl)pyridin-2-yl)-1H-pyrazolo[4,3-c]pyridin-4-amine]
16.4	FC1(F)CCC(Nc2nccc3[nH]nc(-c4ccncn4)c23)CC1 [Compound 38, N-(4,4-difluorocyclohexyl)-3-(pyrimidin-4-yl)-1H-pyrazolo[4,3-c]pyridin-4-amine]
23.2	CC(C)S(=O)(=O)c1ccnc(-c2n[nH]c3ccnc(NC4CCOCC4)c23)c1 [Compound 75, 3-(4-(isopropylsulfonyl)pyridin-2-yl)-N-(tetrahydro-2H-pyran-4-yl)-1H-pyrazolo[4,3-c]pyridin-4-amine]
1.3	Cc1nn(C)cc1-c1ccnc(-c2n[nH]c3ccnc(NC(C)C)c23)c1 [Compound 45, 3-(4-(1,3-dimethyl-1H-pyrazol-4-yl)pyridin-2-yl)-N-isopropyl-1H-pyrazolo[4,3-c]pyridin-4-amine]
23.3	CC1CC(Nc2nccc3[nH]nc(-c4cc(C(F)(F)F)ncn4)c23)CC(C)O1 (centres unmarked) [Compound 68, N-(2,6-dimethyltetrahydro-2H-pyran-4-yl)-3-(6-(trifluoromethyl)pyrimidin-4-yl)-1H-pyrazolo[4,3-c]pyridin-4-amine]
6.7	Cc1nc(-c2n[nH]c3ccnc(NC4CCOCC4)c23)cc(C(F)(F)F)n1 [Compound 71, 3-(2-methyl-6-(trifluoromethyl)pyrimidin-4-yl)-N-(tetrahydro-2H-pyran-4-yl)-1H-pyrazolo[4,3-c]pyridin-4-amine]
644	Cc1cc2[nH]nc(-c3cc(C(=O)N(C)C)ccn3)c2c(NC2CCOCC2)n1 [Compound 60, N,N-dimethyl-2-(6-methyl-4-((tetrahydro-2H-pyran-4-yl)amino)-1H-pyrazolo[4,3-c]pyridin-3-yl)isonicotinamide]
4.6	CC(C)Nc1nccc2[nH]nc(-c3cc(C4CCOC4)ccn3)c12 (centres unmarked) [Compound 49, N-isopropyl-3-(4-(tetrahydrofuran-3-yl)pyridin-2-yl)-1H-pyrazolo[4,3-c]pyridin-4-amine]
16.6	Cc1cc(C(=O)N(C)C)cc(-c2n[nH]c3ccnc(NC4CCOCC4)c23)n1 [Compound 64, N,N,2-trimethyl-6-(4-((tetrahydro-2H-pyran-4-yl)amino)-1H-pyrazolo[4,3-c]pyridin-3-yl)isonicotinamide]
22.9	FC1(F)CCC(Nc2nccc3[nH]nc(-c4cc(C(F)(F)F)ncn4)c23)CC1 [Compound 66, N-(4,4-difluorocyclohexyl)-3-(6-(trifluoro-methyl)pyrimidin-4-yl)-1H-pyrazolo[4,3-c]pyridin-4-amine]
12	CC(C)Nc1nccc2[nH]nc(-c3cc(C4CCOC4)ncn3)c12 (centres unmarked) [Compound 48, N-isopropyl-3-(6-(tetrahydrofuran-3-yl)pyrimidin-4-yl)-1H-pyrazolo[4,3-c]pyridin-4-amine]
3.1	CC(C)Nc1nccc2[nH]nc(-c3cc(-c4cccnc4F)ccn3)c12 [Compound 37, 3-(2-fluoro-[3,4′-bipyridin]-2′-yl)-N-isopropyl-1H-pyrazolo[4,3-c]pyridin-4-amine]
14.7	O=C(c1ccnc(-c2n[nH]c3ccnc(NC4CCOCC4)c23)c1)N1CCC1 [Compound 63, azetidin-1-yl(2-(4-((tetrahydro-2H-pyran-4-yl)amino)-1H-pyrazolo[4,3-c]pyridin-3-yl)pyridin-4-yl)methanone]
20.2	FC(F)(F)c1cc(-c2n[nH]c3ccnc(NCC4CC4)c23)ncn1 [Compound 65, N-(cyclopropylmethyl)-3-(6-(trifluoromethyl)pyrimidin-4-yl)-1H-pyrazolo[4,3-c]pyridin-4-amine]
39.1	CCOc1cc(-c2n[nH]c3cc(C)nc(NC4CCOCC4)c23)ncn1 [Compound 58, 3-(6-ethoxypyrimidin-4-yl)-6-methyl-N-(tetrahydro-2H-pyran-4-yl)-1H-pyrazolo[4,3-c]pyridin-4-amine]
3.9	CC(C)Nc1nccc2[nH]nc(-c3cc(N4C[C@@H](F)[C@H](F)C4)ccn3)c12 [Compound 59, 3-(4-((3R,4R)-3,4-difluoropyrrolidin-1-yl)pyridin-2-yl)-N-isopropyl-1H-pyrazolo[4,3-c]pyridin-4-amine]
22.6	FC(F)(F)c1cc(-c2n[nH]c3ccnc(NC4CC5CCC(C4)O5)c23)ncn1 (centres unmarked) [Compound 77, N-(8-oxabicyclo[3.2.1]octan-3-yl)-3-(6-(trifluoromethyl)pyrimidin-4-yl)-1H-pyrazolo[4,3-c]pyridin-4-amine]
